Results taken from ChEMBL document CHEMBL3714753, “Substituted tetrahydroquinolines, phenylacetic acids and benzoic acids as hepatocyte nuclear factor 4 (hnf-4 ) modulator compounds” (2005).

Legend:
[1] = molecular target: T1, Hepatocyte nuclear factor 4-alpha (Homo sapiens, UniProt P41235); assay: Displacement of radiolabeled methyl-4-[5,6,7,8-tetrahydro-5,5,8,8-tetramethyl-3-ethyloxy-2-naphthalenyl]benzoyl benzoate from HNF4alpha (unknown origin)
T1 sequence (P41235 whole entry): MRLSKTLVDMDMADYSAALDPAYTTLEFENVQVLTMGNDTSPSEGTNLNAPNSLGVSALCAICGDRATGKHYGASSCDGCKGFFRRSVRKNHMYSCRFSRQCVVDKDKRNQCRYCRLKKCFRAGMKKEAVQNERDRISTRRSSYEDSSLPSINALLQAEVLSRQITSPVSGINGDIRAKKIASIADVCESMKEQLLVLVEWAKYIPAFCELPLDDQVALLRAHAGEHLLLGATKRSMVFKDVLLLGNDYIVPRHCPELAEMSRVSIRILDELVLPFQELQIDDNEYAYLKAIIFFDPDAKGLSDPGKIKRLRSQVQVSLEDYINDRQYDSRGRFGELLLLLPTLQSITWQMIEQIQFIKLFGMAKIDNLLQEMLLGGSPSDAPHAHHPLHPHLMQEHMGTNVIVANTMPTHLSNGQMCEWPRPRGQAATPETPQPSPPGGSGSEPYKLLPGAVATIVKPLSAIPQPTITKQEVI

[2] = molecular target: T2, Hepatocyte nuclear factor 4-alpha (Rattus norvegicus) (UniProt P22449); assay: Agonist activity at rat HNF4alpha1 expressed in African green monkey CV1 cells incubated for 24 hrs by firefly luciferase reporter gene assay relative to LGOI00695; format: functional, cell-based; conditions: CV-1
T2 sequence (whole entry): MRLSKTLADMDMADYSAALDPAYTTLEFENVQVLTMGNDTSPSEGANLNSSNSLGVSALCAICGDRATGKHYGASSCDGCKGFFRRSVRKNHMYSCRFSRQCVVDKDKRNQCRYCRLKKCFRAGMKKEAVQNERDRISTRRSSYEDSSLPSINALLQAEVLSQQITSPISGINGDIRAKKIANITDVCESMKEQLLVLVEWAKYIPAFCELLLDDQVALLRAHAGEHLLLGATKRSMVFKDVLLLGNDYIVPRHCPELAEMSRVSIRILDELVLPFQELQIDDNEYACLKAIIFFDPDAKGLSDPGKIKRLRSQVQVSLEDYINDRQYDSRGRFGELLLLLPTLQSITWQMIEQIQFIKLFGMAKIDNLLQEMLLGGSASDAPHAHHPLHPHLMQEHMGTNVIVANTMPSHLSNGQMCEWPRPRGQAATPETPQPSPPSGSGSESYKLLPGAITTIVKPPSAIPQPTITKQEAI

[3] = molecular target: T3, Hepatocyte nuclear factor 4-alpha (Rattus norvegicus, UniProt P22449); assay: Agonist activity at rat HNF4alpha1 expressed in African green monkey CV1 cells incubated for 24 hrs by firefly luciferase reporter gene assay; format: functional, cell-based, CV-1
T3 sequence (P22449 whole entry): T2 sequence (whole entry)

[4] = molecular target: T2, Hepatocyte nuclear factor 4-alpha (Rattus norvegicus); assay: Antagonist activity against rat HNF4alpha1 expressed in African green monkey CV1 cells assessed as inhibition of LGOI00695-induced receptor activation incubated for 24 hrs by firefly luciferase reporter gene assay relative to control; format: functional, cell-based; conditions: CV-1
[5] = molecular target: T3, Hepatocyte nuclear factor 4-alpha; assay: Antagonist activity against rat HNF4alpha1 expressed in African green monkey CV1 cells assessed as inhibition of LGOI00695-induced receptor activation incubated for 24 hrs by firefly luciferase reporter gene assay; format: functional, cell-based, CV-1

SMILES | Ki [1] | Efficacy [2] | EC50 [3] | Efficacy [4] | IC50 [5]
O=C(O)Cc1ccc([C@H]2Nc3ccccc3[C@H]3OCCC[C@@H]23)cc1 (relative stereo) | 219 nM | 134% | 649 nM | – | –
COC(=O)c1ccc([C@H]2Nc3ccccc3[C@H]3OCCC[C@@H]23)cc1 (relative stereo) | 234 nM | 165% | 426 nM | – | –

The remaining compounds from weak to strong by Ki [1], led by results:

Ki [1] | Efficacy [2] | EC50 [3] | Efficacy [4] | IC50 [5] | SMILES
2170 nM | – | – | 69% | 300 nM | O=C(O)c1ccc(C2Nc3ccc4ccccc4c3[C@H]3OCCC[C@@H]23)cc1 (relative stereo)
1080 nM | 42% | 778 nM | – | – | O=C(O)c1ccc(C2Nc3ccc4ccccc4c3[C@H]3OCC[C@@H]23)cc1 (relative stereo)
135 nM | 60% | 1730 nM | – | – | Cc1cc2c(cc1C)[C@H]1OCCC[C@H]1[C@@H](c1ccc(C(=O)O)cc1)N2 (relative stereo)
